Measured values from patent US9745328B2, “Flap modulators” (JANSSEN PHARMACEUTICA NV, priority 2013, dated 2017).
pKi: −log10 of the molar value. Where a name gives a salt, the structure may show the parent alone.

Each compound was assayed against human FLAP (Homo sapiens (Human), UniProt P20292) (assay: FLAP binding assay (HTRF format)). Conditions: Table 5, human FLAP wild type.
Protocol: The ability of the compounds of the present invention to treat a FLAP-mediated disease and/or disorder, or associated symptoms or complications thereof, was determined using the following procedures. Binding assay data represent the average value obtained from two different assay plates, with samples run in duplicate on each plate. Human whole blood assay data represent a single replicate on an assay plate using whole blood from at least one healthy donor.
Data are expressed as a HTRF ratio.

Sequence of human FLAP (P20292 whole entry): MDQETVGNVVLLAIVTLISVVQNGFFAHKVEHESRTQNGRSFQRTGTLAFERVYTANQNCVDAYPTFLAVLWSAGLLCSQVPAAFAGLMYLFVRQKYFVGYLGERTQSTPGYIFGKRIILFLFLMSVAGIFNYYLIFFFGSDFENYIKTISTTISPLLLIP

SMILES	pKi
Nc1cnc(-c2ccc(-c3cccnc3S(=O)(=O)C3CCNC3)cc2F)cn1 (racemic) [Example 803, 5-(2-Fluoro-4-(2-(pyrrolidin-3-ylsulfonyl)pyridin-3-yl)phenyl)pyrazin-2-amine hydrochloride]	6.97

Same assay, conditions: Table 6 (additional runs), human FLAP wild type

SMILES	pKi
CC(NS(=O)(=O)c1ccccc1-c1ccc(-c2cnc(N)cn2)c(F)c1)C(F)(F)F (racemic) [Example 8, (racemic)-4′-(5-Aminopyrazin-2-yl)-3′-fluoro-N-(2,2,2-trifluoro-1-methylethyl)biphenyl-2-sulfonamide racemic]	8.89
Nc1cnc(-c2ccc(-c3ccccc3S(=O)(=O)NC3CC4CCC3C4)cc2F)cn1 (racemic) [Example 10, (racemic)-(endo)-4′-(5-Aminopyrazin-2-yl)-N-bicyclo[2.2.1]hept-2-yl-3′-fluorobiphenyl-2-sulfonamide racemic]	8.57
Nc1cnc(-c2ccc(-c3ccccc3S(=O)(=O)N3CCN4CCCC4C3)cc2F)cn1 (racemic) [Example 61, racemic 5-[3-Fluoro-2′-(hexahydropyrrolo[1,2-a]pyrazin-2(1H)-ylsulfonyl)biphenyl-4-yl]pyrazin-2-amine]	7.80
Nc1cnc(-c2ccc(-c3ccccc3S(=O)(=O)N3CCCC(CCO)C3)cc2F)cn1 (racemic) [Example 71, racemic 2-(1-{[4′-(5-Aminopyrazin-2-yl)-3′-fluorobiphenyl-2-yl]sulfonyl}piperidin-3-yl)ethanol]	8.72
CC(C)(C)OC(=O)NC1CCCN(S(=O)(=O)c2ccccc2-c2ccc(-c3cnc(N)cn3)c(F)c2)C1 (racemic) [Example 77, racemic tert-Butyl (1-{[4′-(5-aminopyrazin-2-yl)-3′-fluorobiphenyl-2-yl]sulfonyl}piperidin-3-yl)carbamate]	8.49
Nc1cnc(-c2ccc(-c3ccccc3S(=O)(=O)N[C@H]3CCCC[C@@H]3O)cc2F)cn1 (racemic) [Example 120, racemic (trans)-4′-(5-Aminopyrazin-2-yl)-3′-fluoro-N-(2-hydroxycyclohexyl)biphenyl-2-sulfonamide]	8.96
Nc1cnc(-c2ccc(-c3ccccc3S(=O)(=O)N[C@H]3CCCC[C@@H]3CO)cc2F)cn1 (racemic) [Example 121, racemic (trans)-4′-(5-Aminopyrazin-2-yl)-3′-fluoro-N-[2-(hydroxymethyl)cyclohexyl]biphenyl-2-sulfonamide]	9.30
Nc1cnc(-c2ccc(-c3ccccc3S(=O)(=O)N[C@@H]3CCCC[C@@H]3CO)cc2F)cn1 (racemic) [Example 122, racemic (cis)-4′-(5-Aminopyrazin-2-yl)-3′-fluoro-N-[2-(hydroxymethyl)cyclohexyl]biphenyl-2-sulfonamide]	9.15
Nc1ncc(-c2ccc(-c3ccccc3S(=O)(=O)N[C@H]3CCCC[C@H]3O)cc2F)cn1 (racemic) [Example 259, racemic (cis) 4′-(2-Aminopyrimidin-5-yl)-3′-fluoro-N-[(cis)-2-hydroxycyclohexyl]biphenyl-2-sulfonamide]	8.11
Nc1ncc(-c2ccc(-c3ccccc3S(=O)(=O)N[C@H]3CCCC[C@@H]3O)cc2F)cn1 (racemic) [Example 260, racemic (trans) 4′-(2-Aminopyrimidin-5-yl)-3′-fluoro-N-[(trans)-2-hydroxycyclohexyl]biphenyl-2-sulfonamide]	8.05
CC(NS(=O)(=O)c1ccccc1-c1ccc(-c2cnc3[nH]ccc3n2)c(F)c1)C(F)(F)F (racemic) [Example 376, 3′-Fluoro-4′-(5H-pyrrolo[2,3-b]pyrazin-2-yl)N-N-(2,2,2-trifluoro-1-methylethyl)biphenyl-2-sulfonamide]	9.30
C[C@H](NS(=O)(=O)c1ccccc1-c1ccc(-c2cnc(N)cn2)c(F)c1)C(O)c1ccccc1 (stereo in doubt) [Example 83, 4′-(5-Aminopyrazin-2-yl)-3′-fluoro-N-[(1S,2R)-2-hydroxy-1-methyl-2-phenylethyl]biphenyl-2-sulfonamide]	9.15
CN1CCN([C@H]2CN(S(=O)(=O)c3ccccc3-c3ccc(-c4cnc(N)cn4)c(F)c3)C[C@@H]2O)CC1 (stereo in doubt) [Example 188, (3S,4S)-1-{[4′-(5-Aminopyrazin-2-yl)-3′-fluorobiphenyl-2-yl]sulfonyl}-4-(4-methylpiperazin-1-yl)pyrrolidin-3-ol]	6.70
CC(CO)NS(=O)(=O)c1ccccc1-c1ccc(-c2cnc3[nH]ccc3n2)c(F)c1 (stereo in doubt) [Example 378, 3′-Fluoro-N-[(1R)-2-hydroxy-1-methylethyl]-4′-(5H-pyrrolo[2,3-b]pyrazin-2-yl)biphenyl-2-sulfonamide]	9.22
CC(CO)NS(=O)(=O)c1ccccc1-c1ccc(-c2cnc3[nH]ccc3n2)c(F)c1 (stereo in doubt) [Example 380, 3′-Fluoro-N-[(1S)-2-hydroxy-1-methylethyl]4′-(5H-pyrrolo[2,3-b]pyrazin-2-yl)biphenyl-2-sulfonamide]	8.96
CS(=O)(=O)c1ccccc1-c1ccc(-c2cnc(N)cn2)c(F)c1 [Example 1, 5-(3-Fluoro-2′-(methylsulfonyl)-[1,1′-biphenyl]-4-yl)pyrazin-2-amine]	6.45
CS(=O)(=O)Nc1ccccc1-c1ccc(-c2cnc(N)cn2)c(F)c1 [Example 2, N-[4′-(5-Aminopyrazin-2-yl)-3′-fluorobiphenyl-2-yl]methanesulfonamide]	6.75

SMILES	pKi
CC(C)(C)NS(=O)(=O)c1ccccc1-c1ccc(-c2cnc(N)cn2)c(F)c1 [Example 4, 4′-(5-Aminopyrazin-2-yl)-N-(tert-butyl)-3′-fluoro-[1,1′-biphenyl]-2-sulfonamide]	9.40
Nc1cnc(-c2ccc(-c3ccccc3S(=O)(=O)NC3CCCCC3)cc2F)cn1 [Example 6, 4′-(5-Aminopyrazin-2-yl)-N-cyclohexyl-3′-fluorobiphenyl-2-sulfonamide]	8.96
CC(C)CNS(=O)(=O)c1ccccc1-c1ccc(-c2cnc(N)cn2)c(F)c1 [Example 7, 4′-(5-Aminopyrazin-2-yl)-3′-fluoro-N-(2-methylpropyl)biphenyl-2-sulfonamide]	9.10
Nc1cnc(-c2ccc(-c3ccccc3S(=O)(=O)NCC3CCC3)cc2F)cn1 [Example 9, 4′-(5-Aminopyrazin-2-yl)-N-(cyclobutylmethyl)-3′-fluorobiphenyl-2-sulfonamide]	8.82
CC1(NS(=O)(=O)c2ccccc2-c2ccc(-c3cnc(N)cn3)c(F)c2)CCC1 [Example 11, 4′-(5-Aminopyrazin-2-yl)-3′-fluoro-N-(1-methylcyclobutyl)biphenyl-2-sulfonamide]	8.80
CCC(C)(C)NS(=O)(=O)c1ccccc1-c1ccc(-c2cnc(N)cn2)c(F)c1 [Example 12, 4′-(5-Aminopyrazin-2-yl)-N-(1,1-dimethylpropyl)-3′-fluorobiphenyl-2-sulfonamide]	8.72
CC(C)(NS(=O)(=O)c1ccccc1-c1ccc(-c2cnc(N)cn2)c(F)c1)C(F)(F)F [Example 13, 4′-(5-4minopyrazin-2-yl)-3′-fluoro-N-(2,2,2-trifluoro-1,1-dimethylethyl)biphenyl-2-sulfonamide]	8.92
Nc1cnc(-c2ccc(-c3ccccc3S(=O)(=O)NC3CCCC3)cc2F)cn1 [Example 14, 4′-(5-Aminopyrazin-2-yl)-N-cyclopentyl-3′-fluorobiphenyl-2-sulfonamide]	8.46
CNS(=O)(=O)c1ccccc1-c1ccc(-c2cnc(N)cn2)c(F)c1 [Example 15, 4′-(5-Aminopyrazin-2-yl)-3′-fluoro-N-methylbiphenyl-2-sulfonamide]	7.95
CCNS(=O)(=O)c1ccccc1-c1ccc(-c2cnc(N)cn2)c(F)c1 [Example 16, 4′-(5-Aminopyrazin-2-yl)-N-ethyl-3′-fluorobiphenyl-2-sulfonamide]	8.30
Nc1cnc(-c2ccc(-c3ccccc3S(=O)(=O)NCCc3ccccc3)cc2F)cn1 [Example 17, 4′-(5-Aminopyrazin-2-yl)-3′-fluoro-N-(2-phenylethyl)biphenyl-2-sulfonamide]	8.77
Nc1cnc(-c2ccc(-c3ccccc3S(=O)(=O)N[C@H](c3ccccc3)C(F)(F)F)cc2F)cn1 [Example 18]	8.74
Nc1cnc(-c2ccc(-c3ccccc3S(=O)(=O)N[C@@H](c3ccccc3)C(F)(F)F)cc2F)cn1 [Example 19]	8.66
Nc1cnc(-c2ccc(-c3ccccc3S(=O)(=O)NC3Cc4ccccc4C3)cc2F)cn1 [Example 21, 4′-(5-Aminopyrazin-2-yl)-N-(2,3-dihydro-1H-inden-2-yl)-3′-fluorobiphenyl-2-sulfonamide]	8.68
Nc1cnc(-c2ccc(-c3ccccc3S(=O)(=O)N[C@@H]3CCc4ccccc43)cc2F)cn1 [Example 23, (R)-4′-(5-Aminopyrazin-2-yl|)-N-[(1R)-2,3-dihydro-1H-inden-1-yl]-3′-fluorobiphenyl-2-sulfonamide]	8.92
Nc1cnc(-c2ccc(-c3ccccc3S(=O)(=O)Nc3ccccc3)cc2F)cn1 [Example 26, 4′-(5-Aminopyrazin-2-yl)-3′-fluoro-N-phenylbiphenyl-2-sulfonamide]	9.05
CCN1CCCC[C@@H](NS(=O)(=O)c2ccccc2-c2ccc(-c3cnc(N)cn3)c(F)c2)C1=O [Example 27]	7.58

Same assay, conditions: human FLAP wild type, Table 6 (additional runs)

SMILES	pKi
Nc1cnc(-c2ccc(-c3cccnc3S(=O)(=O)C3CCNC3)cc2F)cn1 (racemic) [Example 803, 5-(2-Fluoro-4-(2-(pyrrolidin-3-ylsulfonyl)pyridin-3-yl)phenyl)pyrazin-2-amine hydrochloride]	6.97
CC(CO)NS(=O)(=O)c1ccccc1-c1ccc(-c2cnc(N)c(C#N)n2)c(F)c1 (stereo in doubt) [Example 410, 4′-(5-amino-6-cyanopyrazin-2-yl)-3′-fluoro-N-[(1R)-2-hydroxy-1-methylethypiphenyl-2-sulfonamide]	8.43
CC(O)CNS(=O)(=O)c1ccccc1-c1ccc(-c2cnc(N)c(C#N)n2)c(F)c1 (stereo in doubt) [Example 415, 4′-(5-Amine-6-cyanopyrazin-2-yl)-3′-fluoro-N-[(R)-2-hydroxypropyl]biphenyl-2-sulfonamide]	7.96

Same assay, conditions: human FLAP wild type, a calculated value of 0.000 indicates Ki less than 1 nM

SMILES	pKi
Nc1cnc(-c2ccc(-c3ccccc3S(=O)(=O)N[C@H]3CCCC[C@@H]3CO)cc2F)cn1 (racemic) [Example 121, racemic (trans)-4′-(5-Aminopyrazin-2-yl)-3′-fluoro-N-[2-(hydroxymethyl)cyclohexyl]biphenyl-2-sulfonamide]	> 9.00
CC(NS(=O)(=O)c1ccccc1-c1ccc(-c2cnc3[nH]ccc3n2)c(F)c1)C(F)(F)F (racemic) [Example 376, 3′-Fluoro-4′-(5H-pyrrolo[2,3-b]pyrazin-2-yl)N-N-(2,2,2-trifluoro-1-methylethyl)biphenyl-2-sulfonamide]	> 9.00
